Data as given in patent publication US12258328B2, “6-membered heteroaryl-containing aminopyridine compounds as EGFR inhibitors” (YUHAN CORPORATION, priority 2021, dated 2025).

Experiments:
EGFR del19/C797S = EGFR del19/C797S (Homo sapiens, UniProt P00533, C797S/DEL746-750); assay: Biochemical EGFR kinase assay (Lance Ultra TR-FRET), double mutant del19/C797S; details: ATP at Km; read-out: IC50 del19/C797S, Km ATP
How it was run: (§1)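 In this biochemical assay, phosphorylation after a one-hour room-temperature reaction was detected with europium-labelled anti-phosphopeptide antibody at 2 nM final concentration.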

EGFR L858R/C797S = EGFR L858R/C797S (Homo sapiens, UniProt P00533, C797S/L858R); assay: Biochemical EGFR kinase assay (Lance Ultra TR-FRET), double mutant L858R/C797S; details: ATP at Km; read-out: IC50 L858R/C797S, Km ATP
How it was run: as §1

EGFR del19/T790M/C797S = EGFR del19/T790M/C797S (Homo sapiens, UniProt P00533, C797S/DEL746-750/T790M); assay: Biochemical EGFR kinase assay (Lance Ultra TR-FRET), triple mutant del19/T790M/C797S; details: ATP at Km; read-out: IC50 del19/T790M/C797S, Km ATP
How it was run: as §1

EGFR L858R/T790M/C797S = EGFR L858R/T790M/C797S (Homo sapiens, UniProt P00533, C797S/L858R/T790M); assay: Biochemical EGFR kinase assay (Lance Ultra TR-FRET), triple mutant L858R/T790M/C797S; details: ATP at Km; read-out: IC50 L858R/T790M/C797S, Km ATP
How it was run: as §1

EGFR wildtype = EGFR wildtype (Homo sapiens, UniProt P00533); assay: Biochemical EGFR kinase assay (Lance Ultra TR-FRET), wildtype; details: ATP at Km; read-out: IC50 WT, Km ATP
How it was run: as §1

Chain of EGFR del19/C797S (P00533 with tags, fused parts or gaps DEL746-750/C797S): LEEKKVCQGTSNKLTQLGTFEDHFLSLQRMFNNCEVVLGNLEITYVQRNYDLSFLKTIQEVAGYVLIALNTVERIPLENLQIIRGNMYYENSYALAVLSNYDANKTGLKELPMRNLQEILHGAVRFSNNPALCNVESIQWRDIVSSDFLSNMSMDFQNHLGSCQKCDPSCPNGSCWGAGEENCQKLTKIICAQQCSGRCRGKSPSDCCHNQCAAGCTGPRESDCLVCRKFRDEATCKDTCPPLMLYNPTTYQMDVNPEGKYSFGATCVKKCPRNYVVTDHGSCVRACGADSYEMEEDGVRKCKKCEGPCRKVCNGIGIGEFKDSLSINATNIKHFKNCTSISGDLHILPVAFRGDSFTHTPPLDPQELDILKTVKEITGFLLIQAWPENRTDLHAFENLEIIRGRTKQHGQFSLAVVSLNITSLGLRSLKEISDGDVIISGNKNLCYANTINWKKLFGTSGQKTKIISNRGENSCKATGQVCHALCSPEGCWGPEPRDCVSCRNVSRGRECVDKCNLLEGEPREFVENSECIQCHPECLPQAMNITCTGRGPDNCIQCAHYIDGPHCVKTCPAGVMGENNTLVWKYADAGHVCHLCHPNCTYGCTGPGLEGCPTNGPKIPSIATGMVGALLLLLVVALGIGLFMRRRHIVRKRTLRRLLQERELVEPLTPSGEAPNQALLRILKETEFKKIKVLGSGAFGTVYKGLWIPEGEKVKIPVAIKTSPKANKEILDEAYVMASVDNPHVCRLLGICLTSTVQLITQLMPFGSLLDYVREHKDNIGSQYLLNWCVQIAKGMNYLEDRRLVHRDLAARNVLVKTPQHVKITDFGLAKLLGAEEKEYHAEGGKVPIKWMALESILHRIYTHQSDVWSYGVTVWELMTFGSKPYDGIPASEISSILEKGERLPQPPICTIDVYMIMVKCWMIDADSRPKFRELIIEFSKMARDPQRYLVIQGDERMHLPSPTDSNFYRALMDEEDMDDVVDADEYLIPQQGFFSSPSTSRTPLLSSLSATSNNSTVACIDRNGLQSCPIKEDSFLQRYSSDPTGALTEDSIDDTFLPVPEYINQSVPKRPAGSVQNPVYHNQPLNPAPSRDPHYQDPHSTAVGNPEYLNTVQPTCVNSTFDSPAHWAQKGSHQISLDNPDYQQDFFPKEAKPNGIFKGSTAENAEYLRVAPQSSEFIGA
Chain of EGFR L858R/C797S (P00533 25-1210 C797S/L858R): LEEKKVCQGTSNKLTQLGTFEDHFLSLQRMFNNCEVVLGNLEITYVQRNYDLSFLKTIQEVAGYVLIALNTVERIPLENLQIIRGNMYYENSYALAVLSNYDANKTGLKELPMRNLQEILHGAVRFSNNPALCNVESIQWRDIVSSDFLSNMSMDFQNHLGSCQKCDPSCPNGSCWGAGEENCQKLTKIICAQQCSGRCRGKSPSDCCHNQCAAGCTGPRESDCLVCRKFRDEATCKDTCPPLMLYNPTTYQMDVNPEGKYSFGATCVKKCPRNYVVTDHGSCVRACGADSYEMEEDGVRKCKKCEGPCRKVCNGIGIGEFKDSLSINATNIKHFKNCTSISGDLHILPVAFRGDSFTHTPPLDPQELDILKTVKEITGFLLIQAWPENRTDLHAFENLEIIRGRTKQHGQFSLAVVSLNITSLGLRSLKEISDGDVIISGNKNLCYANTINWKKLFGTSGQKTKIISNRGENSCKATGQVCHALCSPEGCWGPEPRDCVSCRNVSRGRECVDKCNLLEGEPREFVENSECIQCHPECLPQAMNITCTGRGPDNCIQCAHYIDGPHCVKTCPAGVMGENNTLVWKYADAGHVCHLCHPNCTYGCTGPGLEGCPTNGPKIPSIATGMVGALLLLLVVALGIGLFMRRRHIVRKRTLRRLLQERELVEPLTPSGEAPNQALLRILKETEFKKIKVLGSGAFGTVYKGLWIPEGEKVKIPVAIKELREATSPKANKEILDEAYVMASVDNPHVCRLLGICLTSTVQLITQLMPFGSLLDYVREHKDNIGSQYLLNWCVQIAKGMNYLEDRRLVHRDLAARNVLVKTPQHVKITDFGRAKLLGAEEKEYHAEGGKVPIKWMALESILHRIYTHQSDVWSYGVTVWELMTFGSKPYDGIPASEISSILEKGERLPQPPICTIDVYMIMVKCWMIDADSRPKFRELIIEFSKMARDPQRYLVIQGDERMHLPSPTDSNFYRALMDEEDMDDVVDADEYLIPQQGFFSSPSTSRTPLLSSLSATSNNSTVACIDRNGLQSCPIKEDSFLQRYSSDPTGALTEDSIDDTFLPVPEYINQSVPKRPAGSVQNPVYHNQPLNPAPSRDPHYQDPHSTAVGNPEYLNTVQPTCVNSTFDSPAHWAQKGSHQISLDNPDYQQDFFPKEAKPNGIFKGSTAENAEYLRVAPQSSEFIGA
Chain of EGFR del19/T790M/C797S (P00533 with tags, fused parts or gaps DEL746-750/T790M/C797S): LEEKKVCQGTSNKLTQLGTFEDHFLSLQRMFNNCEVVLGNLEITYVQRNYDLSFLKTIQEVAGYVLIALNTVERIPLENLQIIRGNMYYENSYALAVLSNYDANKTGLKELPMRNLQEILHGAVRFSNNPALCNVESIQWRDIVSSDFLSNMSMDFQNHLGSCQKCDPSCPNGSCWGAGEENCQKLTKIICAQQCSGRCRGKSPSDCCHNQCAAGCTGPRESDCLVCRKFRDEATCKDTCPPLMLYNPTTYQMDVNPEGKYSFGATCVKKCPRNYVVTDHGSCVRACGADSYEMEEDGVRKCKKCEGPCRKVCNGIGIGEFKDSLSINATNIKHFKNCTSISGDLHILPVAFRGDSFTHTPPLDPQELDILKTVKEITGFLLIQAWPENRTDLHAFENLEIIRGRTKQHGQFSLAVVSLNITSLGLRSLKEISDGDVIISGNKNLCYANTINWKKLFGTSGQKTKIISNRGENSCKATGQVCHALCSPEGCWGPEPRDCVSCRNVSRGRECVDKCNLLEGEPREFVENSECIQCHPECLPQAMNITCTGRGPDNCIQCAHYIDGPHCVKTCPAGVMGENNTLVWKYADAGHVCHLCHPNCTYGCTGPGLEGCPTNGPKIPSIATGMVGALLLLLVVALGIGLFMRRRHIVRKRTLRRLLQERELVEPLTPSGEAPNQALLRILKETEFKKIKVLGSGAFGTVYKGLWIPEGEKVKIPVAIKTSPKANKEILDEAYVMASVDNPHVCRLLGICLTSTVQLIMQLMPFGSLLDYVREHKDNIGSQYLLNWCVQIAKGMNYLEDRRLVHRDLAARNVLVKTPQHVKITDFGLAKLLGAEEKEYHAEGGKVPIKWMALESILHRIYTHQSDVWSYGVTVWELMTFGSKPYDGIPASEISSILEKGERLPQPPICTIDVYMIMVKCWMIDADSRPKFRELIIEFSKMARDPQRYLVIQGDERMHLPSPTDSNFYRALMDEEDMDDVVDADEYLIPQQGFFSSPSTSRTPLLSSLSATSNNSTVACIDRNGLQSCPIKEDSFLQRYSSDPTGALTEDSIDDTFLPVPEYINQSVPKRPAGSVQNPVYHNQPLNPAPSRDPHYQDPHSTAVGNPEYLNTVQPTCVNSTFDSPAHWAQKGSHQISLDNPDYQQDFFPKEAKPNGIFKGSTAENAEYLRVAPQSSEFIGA
Chain of EGFR L858R/T790M/C797S (P00533 25-1210 T790M/C797S/L858R): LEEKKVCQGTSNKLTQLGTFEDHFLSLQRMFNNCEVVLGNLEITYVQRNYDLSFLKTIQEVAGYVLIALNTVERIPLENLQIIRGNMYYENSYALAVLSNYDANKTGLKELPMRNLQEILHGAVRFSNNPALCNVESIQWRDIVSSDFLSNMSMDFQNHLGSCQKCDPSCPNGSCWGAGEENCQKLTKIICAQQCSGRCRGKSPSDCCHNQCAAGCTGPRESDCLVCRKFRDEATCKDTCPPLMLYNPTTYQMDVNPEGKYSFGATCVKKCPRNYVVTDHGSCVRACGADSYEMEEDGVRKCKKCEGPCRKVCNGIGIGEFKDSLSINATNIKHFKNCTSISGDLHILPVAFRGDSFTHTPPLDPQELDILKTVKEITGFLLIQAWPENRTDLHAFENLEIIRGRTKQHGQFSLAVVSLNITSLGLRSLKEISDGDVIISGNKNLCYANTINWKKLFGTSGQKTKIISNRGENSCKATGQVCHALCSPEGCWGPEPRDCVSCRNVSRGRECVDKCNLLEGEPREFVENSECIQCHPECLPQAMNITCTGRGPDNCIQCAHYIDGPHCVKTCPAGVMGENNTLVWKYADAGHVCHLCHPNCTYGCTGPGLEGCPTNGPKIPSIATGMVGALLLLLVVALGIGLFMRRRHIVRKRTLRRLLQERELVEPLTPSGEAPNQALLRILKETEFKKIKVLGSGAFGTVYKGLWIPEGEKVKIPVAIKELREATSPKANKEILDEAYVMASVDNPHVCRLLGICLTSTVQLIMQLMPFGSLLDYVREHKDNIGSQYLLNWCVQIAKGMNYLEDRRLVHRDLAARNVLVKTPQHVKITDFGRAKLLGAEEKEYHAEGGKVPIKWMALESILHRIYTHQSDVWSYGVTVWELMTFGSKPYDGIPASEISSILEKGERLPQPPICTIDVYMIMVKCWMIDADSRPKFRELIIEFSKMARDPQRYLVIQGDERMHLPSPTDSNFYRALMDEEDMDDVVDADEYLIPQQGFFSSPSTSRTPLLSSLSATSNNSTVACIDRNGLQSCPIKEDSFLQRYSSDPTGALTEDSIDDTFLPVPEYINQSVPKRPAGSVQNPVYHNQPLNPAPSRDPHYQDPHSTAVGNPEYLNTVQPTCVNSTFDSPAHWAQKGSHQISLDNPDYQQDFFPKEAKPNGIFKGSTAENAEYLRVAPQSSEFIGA

| IC50 (EGFR del19/C797S) [nM] | IC50 (EGFR L858R/C797S) [nM] | IC50 (EGFR del19/T790M/C797S) [nM] | IC50 (EGFR L858R/T790M/C797S) [nM] | IC50 (EGFR wildtype) [nM] | Compound |
| --- | --- | --- | --- | --- | --- |
| 0.4 | 0.2 | 0.7 | 0.4 | 1 | CN1CCC(Oc2ccc(-c3cnc(Nc4ccnc(-c5cnn(S(=O)(=O)C6CC6)c5)n4)cc3N[C@H]3CCC[C@H](CO)C3)nc2)CC1 [Example 253, ((1S,3S)-3-((6′-((2-(1-(Cyclopropylsulfonyl)-1H-pyrazol-4-yl)pyrimidin-4-yl)amino)-5-((1-methylpiperidin-4-yl)oxy)-[2,3′-bipyridin]-4′-yl)amino)cyclohexyl)methanol] |
| 0.1 | 0.4 | 0.04 | 0.02 | 0.7 | CN1CCC(Oc2ccc(-c3cnc(Nc4ccnc(-c5cnn(S(=O)(=O)C6CC6)c5)n4)cc3NC3CCC(F)CC3)nc2)CC1 (stereo not shown) [Example 254, N^6′-(2-(1-(Cyclopropylsulfonyl)-1H-pyrazol-4-yl)pyrimidin-4-yl)-N^4′-(4-fluorocyclohexyl)-5-((1-methylpiperidin-4-yl)oxy)-[2,3′-bipyridine]-4′,6′-diamine] |
| 0.5 | 0.02 | 0.1 | 0.03 | 1.9 | CN1CCC(Oc2ccc(-c3cnc(Nc4ccnc(-c5cnn(S(=O)(=O)C6CC6)c5)n4)cc3NC3CCC(F)(F)CC3)nc2)CC1 [Example 255, N^6′-(2-(1-(Cyclopropylsulfonyl)-1H-pyrazol-4-yl)pyrimidin-4-yl)-N^4′-(4,4-difluorocyclohexyl)-5-((1-methylpiperidin-4-yl)oxy)-[2,3′-bipyridine]-4′,6′-diamine] |
| 3.8 | 0.6 | 0.1 | 0.1 | 61.6 | CN1CCC(Oc2ccc(-c3cnc(Nc4ccnc(-c5cnn(S(=O)(=O)C6CC6)c5)n4)cc3NC3CCN(CCF)CC3)nc2)CC1 [Example 256, N^6′-(2-(1-(Cyclopropylsulfonyl)-1H-pyrazol-4-yl)pyrimidin-4-yl)-N^4′-(1-(2-fluoroethyl)piperidin-4-yl)-5-((1-methylpiperidin-4-yl)oxy)-[2,3′-bipyridine]-4′,6′-diamine] |
| 1 | 0.4 | 0.4 | 0.2 | 7.4 | CN1CCC(Oc2ccc(-c3cnc(Nc4ccnc(-c5cnn(S(=O)(=O)C6CC6)c5)n4)cc3NC3CCCN(CCF)C3)nc2)CC1 (stereo not shown) [Example 257, N^6′-(2-(1-(Cyclopropylsulfonyl)-1H-pyrazol-4-yl)pyrimidin-4-yl)-N^4′-(1-(2-fluoroethyl)piperidin-3-yl)-5-((1-methylpiperidin-4-yl)oxy)-[2,3′-bipyridine]-4′,6′-diamine] |
| 0.7 | 0.1 | 0.2 | 0.1 | 14.1 | CN1CCC(Oc2ccc(-c3cnc(Nc4ccnc(-c5cnn(S(=O)(=O)C6CC6)c5)n4)cc3NC3CCN(CC(F)F)CC3)nc2)CC1 [Example 258, N^6′-(2-(1-(Cyclopropylsulfonyl)-1H-pyrazol-4-yl)pyrimidin-4-yl)-N^4′-(1-(2,2-difluoroethyl)piperidin-4-yl)-5-((1-methylpiperidin-4-yl)oxy)-[2,3′-bipyridine]-4′,6′-diamine] |
| 1.9 | 0.2 | 1 | 0.4 | 9 | CN1CCC(Oc2ccc(-c3cnc(Nc4ccnc(-c5cnn(S(=O)(=O)C6CC6)c5)n4)cc3NC3CCC(F)(CO)CC3)nc2)CC1 (stereo not shown) [Example 259, (4-((6′-((2-(1-(Cyclopropylsulfonyl)-1H-pyrazol-4-yl)pyrimidin-4-yl)amino)-5-((1-methylpiperidin-4-yl)oxy)-[2,3′-bipyridin]-4′-yl)amino)-1-fluorocyclohexyl)methanol] |
| 10.7 | 8.8 | 6.9 | 4.1 | 7.8 | COC(c1ccc(-c2cnc(Nc3ccnc(-c4cnn(S(=O)(=O)C5CC5)c4)n3)cc2NC2CCC(C)(O)CC2)nc1)C(F)(F)F (stereo not shown) [Example 260, (1s,4s)-4-((6′-((2-(1-(Cyclopropylsulfonyl)-1H-pyrazol-4-yl)pyrimidin-4-yl)amino)-5-(2,2,2-trifluoro-1-methoxyethyl)-[2,3′-bipyridin]-4′-yl)amino)-1-methylcyclohexan-1-ol] |
| 10.3 | 7.5 | 9.6 | 4.1 | 9.2 | COC(c1ccc(-c2cnc(Nc3ccnc(-c4cnn(S(=O)(=O)C5CC5)c4)n3)cc2NC2CCC(CO)CC2)nc1)C(F)(F)F (stereo not shown) [Example 261, ((1s,4s)-4-((6′-((2-(1-(Cyclopropylsulfonyl)-1H-pyrazol-4-yl)pyrimidin-4-yl)amino)-5-(2,2,2-trifluoro-1-methoxyethyl)-[2,3′-bipyridin]-4′-yl)amino)cyclohexyl)methanol] |
| 1.9 | 0.9 | 1.9 | 0.5 | 2 | COC(c1ccc(-c2cnc(Nc3ccnc(-c4cnn(S(=O)(=O)C5CC5)c4)n3)cc2NC2CCC(CN(C)C)CC2)nc1)C(F)(F)F (stereo not shown) [Example 262, N^6′-(2-(1-(Cyclopropylsulfonyl)-1H-pyrazol-4-yl)pyrimidin-4-yl)-N^4′-((1s,4s)-4-((dimethylamino)methyl)cyclohexyl)-5-(2,2,2-trifluoro-1-methoxyethyl)-[2,3′-bipyridine]-4′,6′-diamine] |
| 23.1 | 0.9 | 8 | 3.4 | 14.1 | C[C@]1(O)CC[C@@H](Nc2cc(Nc3ccnc(-c4cnn(S(=O)(=O)C5CC5)c4)n3)ncc2-c2ccc(CCC(F)(F)F)cn2)CC1 [Example 263, (1s,4s)-4-((6′-((2-(1-(Cyclopropylsulfonyl)-1H-pyrazol-4-yl)pyrimidin-4-yl)amino)-5-(3,3,3-trifluoropropyl)-[2,3′-bipyridin]-4′-yl)amino)-1-methylcyclohexan-1-ol] |
| 16.9 | 85.3 | 31 | 22 | 365 | CC(O)(c1ccc(-c2cnc(Nc3ccnc(-c4cnn(S(=O)(=O)C5CC5)c4)n3)cc2NC2CCC(F)CC2)nc1)C(F)(F)F (stereo not shown) [Example 265, 2-(6′-((2-(1-(Cyclopropylsulfonyl)-1H-pyrazol-4-yl)pyrimidin-4-yl)amino)-4′-(((1s,4s)-4-fluorocyclohexyl)amino)-[2,3′-bipyridin]-5-yl)-1,1,1-trifluoropropan-2-ol] |
| 12.5 | 39.6 | 33 | 18.6 | 168 | CC(O)(c1ccc(-c2cnc(Nc3ccnc(-c4cnn(S(=O)(=O)C5CC5)c4)n3)cc2NC2CCC(F)CC2)nc1)C(F)(F)F (stereo not shown) [Example 266, 2-(6′-((2-(1-(Cyclopropylsulfonyl)-1H-pyrazol-4-yl)pyrimidin-4-yl)amino)-4′-((4-fluorocyclohexyl)amino)-[2,3′-bipyridin]-5-yl)-1,1,1-trifluoropropan-2-ol] |
| 82.1 | 357 | 15.4 | 21.7 | 2910 | O=S(=O)(C1CC1)n1cc(-c2nccc(Nc3cc(NC4CCC(F)CC4)c(-c4ccc(N5CCC(F)(F)CC5)nn4)cn3)n2)cn1 (stereo not shown) [Example 267, N^2-(2-(1-(Cyclopropylsulfonyl)-1H-pyrazol-4-yl)pyrimidin-4-yl)-5-(6-(4,4-difluoropiperidin-1-yl)pyridazin-3-yl)-N^4-(4-fluorocyclohexyl)pyridine-2,4-diamine] |
